The values that follow come from patent publication US20130288980A1, “TARGETING SENESCENT AND CANCER CELLS FOR SELECTIVE KILLING BY INTERFERENCE WITH FOXO4” (Buck Institute for Research on Aging, priority 2012, published 2013).

“Also recorded” adds a separate entry of the source.

One assay concerns A375 melanoma cells. The experiment in a line: A375-shGFP versus A375-shFOXO4 sensitivity to chemotherapeutic agents (MTS). Type of assay: cell-based, human. How it is done:
FIG. 12A: 2×10^4 A375-shGFP or A375-shFOXO4-2 cells were plated in triplicate in 96-well plate chambers. The next day the cells were incubated with the indicated concentrations of PLX4032 or left untreated. After 6 days the a CellTiter 96® AQueous One Solution Cell Proliferation Assay (MTS) was performed according to the manufacturer's instructions (Promega) to determine the relative number of cells versus Mock treated A375-shGFP or A375-shFOXO4-2 melanoma cells (Left panel). Additionally, in a separate experiment the cells were refreshed at day 7 with the same dose of PLX4032 and left for another 4 days after which the same procedure was performed. FIG. 12B: Similar experiment as in A), except with the general RAF inhibitor RAF265. FIG. 12C: Similar experiment as in A), except with the MEK inhibitor AZD6244.

For the next assay, the system named is FOXO4. In words: FOXO4 knockdown by lentiviral short hairpins: FOXO4 mRNA (QPCR) and punctate FOXO4 staining after 10Gy XRAY. It is filed as cell-based, human. The note with it: HCA2 fibroblasts, 8 days after 10Gy XRAY. How it is done: FIG. 1A: 3×10^6 Normal Human IMR90 fibroblasts were plated in 6 cm dishes and the next day exposed to 10Gy ionizing radiation (XRAY) or left untreated. At the indicated time-points protein samples were prepared by collecting the cells in 1× Laemli Sample buffer. The indicated proteins were detected by western blot using antibodies against FOXO4 (#9472, Cell Signaling), FOXO3a (#07-702, Upstate/Millipore) and Tubulin (B-5-1-2, Sigma-Aldrich). FIG. 1B: 10^4 Normal human HCA2 fibroblasts were plated in 96-well plates in triplicate per condition and the next day exposed to 10Gy ionizing radiation (XRAY) or left untreated. At the indicated time-points mRNA and subsequent cDNA samples were collected using the Cells-to-Ct kit from Ambion according to the manufacturer's instructions. Real-time QPCR was subsequently performed using the Universal Probe Library system from Roche with the following primers/probe combinations: For FOXO4: Probe 18, FOXO4-fwd: 5′-[…]-3′, FOXO4-Rev: 5′-[…]-3′. For Tubulin: Probe 58, Tubulin-Fwd: 5′-[…]-3′ and Tubulin-Rev 5′-[…]-3′. Changes in mRNA expression were calculated using the ΔΔCT method. FIG. 1C: 2×10^5 IMR90 fibroblasts were plated on glass coverslips and the next day exposed to 10Gy ionizing radiation (XRAY) or left untreated. […]

Assay [1] relates to BRAFV600E-driven melanoma cells such as A375. The note with it: Sala et al. 2008; cited from earlier work.
The next assay relates to metastatic melanoma. The note with it: patients with metastatic melanoma; Bollag 2010, Sosman 2012; cited from earlier work.
For assay [2], the system named is BRAFV600E-mutated A375 malignant melanoma cells. The experiment in a line: Cytochrome C release in shFOXO4-infected A375 cells treated with PLX4032. Type of assay: cell-based, human. The note with it: shFOXO4 versus control hairpin; PLX4032 0.5, 2 and 10 μM.
Experimental: FIG. 9B: BRAF^V600E-mutated A375 malignant melanoma cells were infected as in FIG. 2a and selected for 3 days with 1 μg/ml Puromycin. Subsequently 2×10^4 cells were plated in triplicate on glass coverslips in 24-well plate chambers. The next day the cells were incubated with the indicated concentrations of the BRAF^V600E-inhibitor PLX4032 in the presence of 20 μM of the general caspase-inhibitor Q-VD-OPH. After 5 days the cells were processed as in FIG. 2b for Cytochrome C staining and the percentage of cells with Cytochrome C release was quantified.

Consider `N.N.[Cl][Pt][Cl]` [Cisplatin], for which, in the assay on A375 melanoma cells, the “sensitivity of A375-shFOXO4 compared with A375-shGFP cells to the drug” value was “more sensitive”.
For the compound `Cn1c(Nc2ccc(C(F)(F)F)cc2)nc2cc(Oc3ccnc(-c4ncc(C(F)(F)F)[nH]4)c3)ccc21` [RAF265], the “sensitivity of A375-shFOXO4 compared with A375-shGFP cells to the drug” value with A375 melanoma cells is listed as “more sensitive”.
As to 5′-CCAGCTTCAGTCAGCAGTTAT-3′ [shFOXO4-1], the “knockdown of FOXO4 mRNA and reduction in punctate FOXO4 staining” value in the assay on FOXO4 was “induce knockdown of FOXO4 mRNA and reduction in punctate FOXO4”.
On to `Cn1cnc2c(F)c(Nc3ccc(Br)cc3Cl)c(C(=O)NOCCO)cc21` [AZD6244], for which the “sensitivity of A375-shFOXO4 compared with A375-shGFP cells to the drug” value in the assay on A375 melanoma cells is given as “more sensitive”.
With `CCCS(=O)(=O)Nc1ccc(F)c(C(=O)c2c[nH]c3ncc(-c4ccc(Cl)cc4)cc23)c1F` [PLX4032], the apoptosis result in assay [1] is listed as “trigger apoptosis”. In addition, in the assay on metastatic melanoma, the tumor-free survival rates entry is reported as “Major improvements in tumor-free survival rates”. In addition, the “sensitivity of A375-shFOXO4 compared with A375-shGFP cells to the drug” value in the assay with A375 melanoma cells is reported as “more sensitive”. Moreover, the “sensitivity to PLX4032 on FOXO4 knockdown (Cytochrome C release)” value in assay [2] was “strongly sensitized; also recorded: Increased sensitivity”.
As for 5′-CGTCCACGAAGCAGTTCAAAT-3′ [shFOXO4-2], the “knockdown of FOXO4 mRNA and reduction in punctate FOXO4 staining” value in the assay with FOXO4 is “induce knockdown of FOXO4 mRNA and reduction in punctate FOXO4”.
